“Also recorded” adds a separate entry of the source.
Tests used:
[1] = test system: microorganisms; experiment: Peptide activities: targeting/binding, antimicrobial, growth or phenotype altering (Tables 7, 8); type: cell-based; conditions: peptides having multiple activities
[2] = test system: microorganisms; experiment: Targeting peptide binding to target microorganisms (Tables 3, 10, 12); conditions: microorganism(s) the targeting peptide binds; binding in aqueous buffers varied with peptide solubility, preferably 1x PBS
[3] = test system: microorganisms; experiment: Morphology, biofilm and growth disrupting peptides (Table 5); type: cell-based; set-up: key: A: Peptide aggregates; B: Less hyphal formation; Clumps; Diffuse clumps and small polyps; F: Diffuse growth; H: Thin; I: Growth inhibition; Microcolony formation; Rippled; Small polyps; Thick; W: Halo formation on top, microlonies on bottom
Excerpt: In certain embodiments peptides that induce alterations in phenotype or other biological activities can also be used as antimicrobial effector moieties.

Substance	Activities [1]	Target(s) [2]	Organism, effect ([3]; B. subtilis)	Organism, effect ([3]; S. pneumoniae)	Organism, effect ([3]; C. jejuni)	Organism, effect ([3]; E. coli)	Organism, effect ([3]; MRSA)	Organism, effect ([3]; S. epidermidis)	Organism, effect ([3]; E. faecalis)	Organism, effect ([3]; C. albicans)
PF-569: peptide having multiple activities (KSKISEYTEKEFLEFVEDIYTNNK; Peptide with targeting and/or antimicrobial activity)	G B	M. luteus; also recorded: P. mirabilis; also recorded: S. pneumoniae; also recorded: E. faecalis; also recorded: C. jeikeium	B. subtilis (D)							
PF-572: peptide having multiple activities (WRASKGLPGFKAG; Peptide with targeting and/or antimicrobial activity)	G B	S. epidermidis; also recorded: M. luteus; also recorded: E. coli; also recorded: S. pneumoniae; also recorded: C. jeikeium	B. subtilis (D)	S. pneumoniae (R)						
PF-573: peptide having multiple activities (EKKLIVKLIDSIGKSHEEIVGAG; Peptide with targeting and/or antimicrobial activity)	G B	S. epidermidis; also recorded: S. pneumoniae		S. pneumoniae (C)						
PF-576: peptide having multiple activities (AYSGELPEPLVRKMSKEQVRSVMGK; Peptide with targeting and/or antimicrobial activity)	G B	M. luteus; also recorded: P. mirabilis; also recorded: E. coli; also recorded: P. aeruginosa; also recorded: C. albicans; also recorded: S. pneumoniae		S. pneumoniae (C)	C. jejuni (C)	E. coli (A)	MRSA (R)	S. epidermidis (A)		
PF-584: peptide having multiple activities (chain 1 SYIKNLSNQKFLIAF; chain 2 SYIKNLSNQKFLIAF; Peptide with targeting and/or antimicrobial activity)	G B	S. epidermidis and M. luteus and P. mirabilis and C. albicans and MRSA and S. pneumoniae and E. faecalis and C. jeikeium		S. pneumoniae (D)	C. jejuni (D)	E. coli (C)	MRSA (D)	S. epidermidis (C)	E. faecalis (D)	
PF-585: peptide having multiple activities (chain 1 DYNHLLNVVQDWVNTN; chain 2 DYNHLLNVVQDWVNTN; Peptide with targeting and/or antimicrobial activity)	G B	S. epidermidis and E. coli and C. albicans and MRSA and S. pneumoniae and C. jeikeium		S. pneumoniae (R)	C. jejuni (R)		MRSA (S)	S. epidermidis (S)	E. faecalis (A)	
PF-588: peptide having multiple activities (chain 1 ESVEAIKAKAIK; chain 2 ESVEAIKAKAIK; Peptide with targeting and/or antimicrobial activity)	G B	S. epidermidis; also recorded: E. coli; also recorded: C. albicans; also recorded: E. faecalis; also recorded: C. jeikeium; also recorded: C. jejuni							E. faecalis (A)	
PF-590: peptide having multiple activities (chain 1 YYQAKLFPLL; chain 2 YYQAKLFPLL; Peptide with targeting and/or antimicrobial activity)	G B	S. epidermidis; also recorded: M. luteus; also recorded: E. coli; also recorded: E. faecalis; also recorded: C. jeikeium			C. jejuni (R)					
PF-593: peptide having multiple activities (chain 1 MEISTLKKEKLHVKDELSQYLANYKK; chain 2 MEISTLKKEKLHVKDELSQYLANYKK; Peptide with targeting and/or antimicrobial activity)	G B	C. jeikeium							E. faecalis (A)	
PF-594: peptide having multiple activities (chain 1 IVSAIV; chain 2 IVSAIV; Peptide with targeting and/or antimicrobial activity)	G B	C. jeikeium							E. faecalis (C)	
PF-598: peptide having multiple activities (chain 1 MKFMLEVRNKAISAYKEITRTQI; chain 2 MKFMLEVRNKAISAYKEITRTQI; Peptide with targeting and/or antimicrobial activity)	G B	S. epidermidis and M. luteus and P. mirabilis and P. aeruginosa and C. albicans and MRSA and S. pneumoniae and C. jeikeium		S. pneumoniae (R)	C. jejuni (R)	E. coli (C)	MRSA (D)	S. epidermidis (R)	E. faecalis (R)	
PF-599: peptide having multiple activities (chain 1 LFEIFKPKH; chain 2 LFEIFKPKH; Peptide with targeting and/or antimicrobial activity)	G B	S. epidermidis and P. mirabilis and E. coli and C. albicans and MRSA and S. pneumoniae and C. jeikeium		S. pneumoniae (R)	C. jejuni (R)		MRSA (C)	S. epidermidis (M)	E. faecalis (A)	
PF-601: peptide having multiple activities (chain 1 YRVTVKALE; chain 2 YRVTVKALE; Peptide with targeting and/or antimicrobial activity)	G B	C. jeikeium			C. jejuni (A)				E. faecalis (A)	
PF-602: peptide having multiple activities (chain 1 LEKEKKEYIEKLFKTK; chain 2 LEKEKKEYIEKLFKTK; Peptide with targeting and/or antimicrobial activity)	G B	P. mirabilis; also recorded: C. jeikeium							E. faecalis (A)	
PF-604: peptide having multiple activities (chain 1 LMEQVEV; chain 2 LMEQVEV; Peptide with targeting and/or antimicrobial activity)	G B	S. epidermidis; also recorded: C. albicans; also recorded: C. jeikeium							E. faecalis (A)	
PF-607: peptide having multiple activities (chain 1 YIESDPRKFDYIFGAIRDH; chain 2 YIESDPRKFDYIFGAIRDH; Peptide with targeting and/or antimicrobial activity)	G B	S. epidermidis and P. mirabilis and E. coli and MRSA and S. pneumoniae and C. jeikeium		S. pneumoniae (R)	C. jejuni (R)		MRSA (S)	S. epidermidis (M)	E. faecalis (A)	
PF-609: peptide having multiple activities (chain 1 TEIKLDNNEYLVLNLDDILGILK; chain 2 TEIKLDNNEYLVLNLDDILGILK; Peptide with targeting and/or antimicrobial activity)	G B	P. mirabilis; also recorded: E. coli; also recorded: S. pneumoniae		S. pneumoniae (R)	C. jejuni (R)		MRSA (C)		E. faecalis (A)	
PF-613: peptide having multiple activities (chain 1 ADEFAKL; chain 2 ADEFAKL; Peptide with targeting and/or antimicrobial activity)	G B	C. jeikeium					MRSA (C)	S. epidermidis (R)	E. faecalis (A)	
PF-614: peptide having multiple activities (chain 1 GLDIYA; chain 2 GLDIYA; Peptide with targeting and/or antimicrobial activity)	G B	S. epidermidis; also recorded: E. coli; also recorded: C. jeikeium		S. pneumoniae (R)	C. jejuni (R)			S. epidermidis (M)	E. faecalis (A)	
PF-616: peptide having multiple activities (chain 1 IVFVVTKEKK; chain 2 IVFVVTKEKK; Peptide with targeting and/or antimicrobial activity)	G B	C. jeikeium						S. epidermidis (R)	E. faecalis (A)	
PF-617: peptide having multiple activities (chain 1 PMNAAEPE; chain 2 PMNAAEPE; Peptide with targeting and/or antimicrobial activity)	G B	P. aeruginosa; also recorded: C. albicans		S. pneumoniae (I)					E. faecalis (H)	C. albicans (H)
PF-621: peptide having multiple activities (chain 1 PPSSFLV; chain 2 PPSSFLV; Peptide with targeting and/or antimicrobial activity)	G B	S. epidermidis; also recorded: C. albicans		S. pneumoniae (I)					E. faecalis (H)	

— patent US20110039763A1, “TARGETED ANTIMICROBIAL MOIETIES” (C3 JIAN, INC., priority 2009, published 2011)
